Measurements from patent publication US12404283B2, “c-MYC mRNA translation modulators and uses thereof in the treatment of cancer” (Anima Biotech Inc., priority 2022, dated 2025).

What follows are compounds tested on c-Myc (assay: c-Myc immunofluorescence assay). Settings: A549 cells, 24 hours treatment, anti-c-Myc immunofluorescence.
Type: cell-based, human
Method in brief: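 High-content imaging (20×) of PFA-fixed A549 cells immunostained for c-Myc with DAPI nuclei, after 24 h compound treatment at increasing concentrations. Per-cell c-Myc signal in identified cell regions was plotted against dose and fitted by logistic regression to give EC50.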

| SMILES | Myc Efficacy (−LogEC50) |
| --- | --- |
| CCN(CC)CCCNC(=O)c1ccc2c(c1)sc1nc(-c3ccc(C(=O)NC(C)C)cc3)cn12 [compound 283, N-(3-(diethylamino)propyl)-2-(4-(isopropylcarbamoyl)phenyl) benzo[d]imidazo[2,1-b]thiazole-7-carboxamide] | + (+ >3 and <5) |
| CCN(CC)CCCNC(=O)c1ccc2c(c1)sc1nc(-c3ccc(C(=O)NCCOC)cc3)cn12 [compound 284, N-(3-(diethylamino)propyl)-2-(4-((2-methoxyethyl)carbamoyl)phenyl)benzo[d]imidazo[2,1-b]thiazole-7-carboxamide] | + (+ >3 and <5) |
| CCN(CC)CCCNC(=O)c1ccc2c(c1)sc1nc(-c3ccc(C(=O)NCCO)cc3)cn12 [compound 285, N-(3-(diethylamino)propyl)-2-(4-((2-hydroxyethyl)carbamoyl)phenyl)benzo[d]imidazo[2,1-b]thiazole-7-carboxamide] | + (+ >3 and <5) |
| CCN(CC)CCCNC(=O)c1ccc2c(c1)sc1nc(-c3ccc(C(=O)NC4CCN(C)C4)cc3)cn12 (stereo not shown) [compound 286, N-(3-(diethylamino)propyl)-2-(4-((1-methylpyrrolidin-3-yl)carbamoyl)phenyl)benzo [d]imidazo[2,1-b]thiazole-7-carboxamide] | ++ (++ ≥5 and <6) |
| CCN(CC)CCCNC(=O)c1ccc2c(c1)sc1nc(-c3ccc(C(=O)NC4CCNCC4)cc3)cn12 [compound 287, N-(3-(diethylamino)propyl)-2-(4-(piperidin-4-ylcarbamoyl)phenyl)benzo [d]imidazo[2,1-b]thiazole-7-carboxamide] | + (+ >3 and <5) |
| CCN(CC)CCCNC(=O)c1ccc2c(c1)sc1nc(-c3ccc(CNC)cc3)cn12 [compound 288, N-(3-(diethylamino)propyl)-2-(4-((methylamino)methyl)phenyl) benzo[d]imidazo[2,1-b]thiazole-7-carboxamide] | +++ (+++ ≥6) |
| CCN(CC)CCCNC(=O)c1ccc2c(c1)sc1nc(-c3ccc(CN4CCCC4)cc3)cn12 [compound 289, N-(3-(diethylamino)propyl)-2-(4-(pyrrolidin-1-ylmethyl)phenyl)benzo[d] imidazo[2,1-b]thiazole-7-carboxamide] | +++ (+++ ≥6) |
| NCc1ccc(-c2cn3c(n2)sc2cc(C(=O)NCCCN4CCCCC4)ccc23)cc1 [compound 290, 2-(4-(aminomethyl)phenyl)-N-(3-(piperidin-1-yl)propyl)benzo[d]imidazo [2,1-b]thiazole-7-carboxamide] | +++ (+++ ≥6) |
| CCN(CC)CCCNC(=O)c1ccc2c(c1)sc1nc(-c3ccc(C(=O)NC)c(F)c3)cn12 [compound 291] | + (+ >3 and <5) |
| CCN(CC)CCCNC(=O)c1ccc2c(c1)sc1nc(-c3ccc(CNCCOC)cc3)cn12 [compound 292, N-(3-(diethylamino)propyl)-2-(4-(((2-methoxyethyl)amino)methyl)phenyl)benzo[d]imidazo[2,1-b]thiazole-7-carboxamide] | +++ (+++ ≥6) |
| CCN(CC)CCCNC(=O)c1ccc2c(c1)sc1nc(-c3ccc([C@@H](NC)C(F)(F)F)cc3)cn12 [compound 293, (R)-N-(3-(diethylamino)propyl)-2-(4-(2,2,2-trifluoro-1-(methylamino)ethyl)phenyl) benzo[d]imidazo[2,1-b]thiazole-7-carboxamide] | ++ (++ ≥5 and <6) |
| CCN(CC)CCCNC(=O)c1ccc2c(c1)sc1nc(-c3ccc([C@H](NC)C(F)(F)F)cc3)cn12 [compound 294, (S)-N-(3-(diethylamino)propyl)-2-(4-(2,2,2-trifluoro-1-(methylamino)ethyl)phenyl) benzo[d]imidazo[2,1-b]thiazole-7-carboxamide] | ++ (++ ≥5 and <6) |
| CCN(CC)CCCNC(=O)c1ccc2c(c1)sc1nc(-c3ccc(C(=O)NCCNC)cc3)cn12 [compound 295, N-(3-(diethylamino)propyl)-2-(4-((2-(methylamino)ethyl)carbamoyl)phenyl)benzo[d] imidazo[2,1-b]thiazole-7-carboxamide] | ++ (++ ≥5 and <6) |
